The nature of assay [1]: DPPH radical scavenging activity. The format is functional. (In general: The DPPH test is a chemical assay of radical scavenging.)
Assay [2] has as its system P388. Briefly: Cytotoxicity against mouse P388 cells after 72 hrs by MTT assay. The format is functional, cell-based. To be noted: P388, 72 h. On the technique in general: Tetrazolium assays rely on reduction of a dye to a coloured formazan, in cell work by metabolically active cells.
Assay [3] in a line: Cytotoxicity against human […] cells after 24 hrs by SRB assay. The format is functional, cell-based.
Assay [4] relates to HL-60. Put plainly: Cytotoxicity against human HL60 cells after 72 hrs by MTT assay. The format is functional, cell-based. The following applies: HL-60, 72 h.
In assay [5] the test system is Bel-7402. Briefly: Cytotoxicity against human BEL-7402 cells after 24 hrs by SRB assay. The format is functional, cell-based. To be noted: Bel-7402, 24 h. (In general: In SRB staining, fixed cells bind dye roughly in proportion to their protein.)

`O=C1O[C@H]([C@@H](O)CO)C(O)=C1O` [ASCORBIC ACID]: in assay [1], 22 µM corresponded to half-maximal inhibition (IC50).
With `C=CC(C)(C)c1[nH]c2c(CC=C(C)C)cc(CC=C(C)C)cc2c1C[C@@H]1NC(=O)[C@H](C)NC1=O` [ECHINULIN], the IC50 – broadly, the concentration at which inhibition is half-maximal – in assay [1] is 569 µM.
Turning to `C=CC(C)(C)c1[nH]c2ccc(CC=C(C)C)cc2c1/C=C1\NC(=O)[C@H](C)NC1=O` [ISOECHINULIN A], the IC50 in assay [1] came to 98 µM.
The same measure, in the same setting: next, `C=CC(C)(C)c1[nH]c2ccccc2c1/C=c1\[nH]c(=O)c(=C)[nH]c1=O` [NEOECHINULIN B]: 65 µM.
As for `CC(=O)O[C@H]1C(=O)[C@@]2(C)[C@H]([C@H](OC(=O)c3ccccc3)[C@]3(O)C[C@H](OC(=O)[C@H](O)[C@@H](NC(=O)c4ccccc4)c4ccccc4)C(C)=C1C3(C)C)[C@]1(OC(C)=O)CO[C@@H]1C[C@@H]2O` [PACLITAXEL], the IC50 in assay [2], in assay [3], in assay [4] and in assay [5] was 0.93 µM in each case.
The compound `C=CC(C)(C)c1[nH]c2ccccc2c1C[C@@H]1NC(=O)[C@H](C)NC1=O` [PREECHINULIN] showed a half-maximal inhibitory concentration (IC50) in assay [1] of 1000 µM.
Compound `C=CC(C)(C)c1[nH]c2ccc(CC=C(C)C)cc2c1C[C@@H]1NC(=O)[C@H](C)NC1=O` [TARDIOXOPIPERAZINE A] came in with an IC50 in assay [1] of 912 µM.
As for `C=CC(C)(C)c1[nH]c2c(CC=C(C)C)cccc2c1C[C@@H]1NC(=O)[C@H](C)NC1=O` [TARDIOXOPIPERAZINE B], it took 899 µM to reach half-maximal inhibition in assay [1] (IC50).
As for `C=CC(C)(C)c1[nH]c2ccc(C[C@@H](O)C(C)(C)Cl)cc2c1/C=C1\NC(=O)[C@H](C)NC1=O` [VARIECOLORIN A], the IC50 in assay [2] is above 50 µM; in assay [3], above 50 µM; in assay [1] it was 79 µM; in assay [4] it was above 50 µM; in assay [5], above 50 µM.
`C=CC(C)(C)c1[nH]c2ccc(C[C@@H](Cl)C(C)(C)O)cc2c1/C=C1\NC(=O)[C@H](C)NC1=O` [VARIECOLORIN B]: the IC50 was above 50 µM in assay [2]; above 50 µM in assay [3]; 97 µM in assay [1]; above 50 µM in assay [4]; above 50 µM in assay [5].
Turning to `C=CC(C)(C)c1[nH]c2ccc(C[C@@H](O)C(=C)C)cc2c1/C=C1\NC(=O)[C@H](C)NC1=O` [VARIECOLORIN C], the IC50 is above 50 µM in assay [2]; above 50 µM in assay [3]; 75 µM in assay [1]; above 50 µM in assay [4]; above 50 µM in assay [5].
For `C=CC(C)(C)c1[nH]c2ccc(C[C@H]3OC(C)(C)OC3(C)C)cc2c1/C=C1\NC(=O)[C@H](C)NC1=O` [VARIECOLORIN D], the IC50 in assay [2] was above 50 µM; in assay [3], above 50 µM; in assay [1] it was 88 µM; in assay [4] it was above 50 µM; in assay [5] it was above 50 µM.
As for `C=CC(C)(C)c1[nH]c2ccc(CC(=O)C(C)C)cc2c1/C=C1\NC(=O)[C@H](C)NC1=O` [VARIECOLORIN E], the IC50 was above 50 µM in assay [2]; above 50 µM in assay [3]; 79 µM in assay [1]; above 50 µM in assay [4]; above 50 µM in assay [5].
With `C=CC(C)(C)c1[nH]c2c(C[C@@H](O)C(C)(C)Cl)cccc2c1/C=C1\NC(=O)[C@H](C)NC1=O` [VARIECOLORIN F], the IC50 in assay [2] was above 50 µM; in assay [3] it was above 50 µM; in assay [1] it was 77 µM; in assay [4], above 50 µM; in assay [5], above 50 µM.
Turning to `C=CC(C)(C)c1[nH]c2c(CC=C(C)C)cccc2c1/C=C1\NC(=O)[C@H](C)NC1=O` [VARIECOLORIN G], the IC50 was above 50 µM in assay [2]; above 50 µM in assay [3]; 86 µM in assay [1]; above 50 µM in assay [4]; above 50 µM in assay [5].
In the case of `C=CC(C)(C)c1[nH]c2ccccc2c1/C=C1\NC(=O)C(C)(OC)NC1=O` (stereo unspecified) [VARIECOLORIN H], the IC50 was above 50 µM in assay [2]; above 50 µM in assay [3]; 99 µM in assay [1]; above 50 µM in assay [4]; above 50 µM in assay [5].
Regarding `C=CC(C)(C)c1[nH]c2ccc(CC=C(C)C)cc2c1/C=C1\NC(=O)C(C)(OC)NC1=O` (stereo unspecified) [VARIECOLORIN I], the IC50 in assay [2] was above 50 µM; in assay [3], above 50 µM; in assay [1] it was 79 µM; in assay [4], above 50 µM; in assay [5] it was above 50 µM.
Turning to `C=CC(C)(C)c1[nH]c2ccc(CC=C(C)C)cc2c1/C=C1\NC(=O)C(=O)NC1=O` [VARIECOLORIN J], the IC50 is above 50 µM in assay [2]; above 50 µM in assay [3]; 102 µM in assay [1]; above 50 µM in assay [4]; above 50 µM in assay [5].
`C=CC(C)(C)c1[nH]c2cc3c(cc2c1/C=C1\NC(=O)[C@H](C)NC1=O)C[C@H](C(C)(C)O)OC3(C)C` [VARIECOLORIN K]: the IC50 in assay [2] is above 50 µM; in assay [3], above 50 µM; in assay [1], 89 µM; in assay [4] it was above 50 µM; in assay [5], above 50 µM.
With `C=CC(C)(C)c1[nH]c2ccc(CC=C(C)C)c(CC=C(C)C)c2c1C[C@@H]1NC(=O)[C@H](C)NC1=O` [VARIECOLORIN L], the IC50 in assay [2] was above 50 µM; in assay [3] it was above 50 µM; in assay [1], 623 µM; in assay [4] it was above 50 µM; in assay [5], above 50 µM.
